# pIC50: −log10 of the molar value.
# Target: T1, TNFα (Homo sapiens, UniProt P01375)
# T1 construct: a human whole blood assay driven by endogenously expressed TNFα; endogenous in cells; host or cells: EDTA anticoagulated human whole blood, stimulated with 1 ug/ml zymosan
# Assay: TNF human whole blood screening assay: CD11b expression on granulocytes after zymosan challenge
# Type: cell-based
# Conditions: whole blood IC50 multiplied by the unbound fraction (Fu) in human blood; read-out: free IC50 in the human whole blood assay
# Experimental: Furthermore, the compounds in accordance with the present invention are potent inhibitors of CD11b expressed on granulocytes in human blood cells, when tested in the human whole blood assay as described herein.
# TNF Human Whole Blood Screening Assay
# The compounds according to the Examples were assessed in a human whole blood assay driven by endogenously expressed TNFα by measuring the expression of CD11b on granulocytes in human whole blood challenged with zymosan. Zymosan binds to TLR2 and other receptors, leading to NF-κB signalling which in turn induces the production of pro-inflammatory mediators, including TNFα. In turn, TNFα can stimulate the expression of CD11b on granulocytes.
# Compounds were diluted from 10 mM DMSO stocks (final assay concentration of 0.2% DMSO) to generate a 10-point 2.5-fold serial dilution curve (for example, 20,000 nM to 5.3 nM final assay concentration). Diluted compound was preincubated with EDTA anticoagulated human whole blood for 60 minutes at 37° C. prior to stimulation with 1 ug/ml zymosan. After 3 hours stimulation with zymosan, the whole blood was stained with fluorescent labelled anti CD45 and anti CD11b antibodies. The samples were fixed and red blood cells lysed before analysis with a FACS CANTO II.
# FACS (Fluoresceence Activated Cell Sorting) analysis was performed with FloJo software. SSC-A (Side Scatter Area of peak) and CD45 signal was used to identify granulocytes, followed by SSC-A and SSC-W (Side Scatter Width of peak) to select single cells. MESF (Molecules of Equivalent Soluble Fluorochrome) beads were used to calibrate the CD11b signal on single cell granulocytes. Activation of CD11b was inhibited in a dose dependent manner by the TNFα inhibitor.
# Percentage inhibition of compounds was calculated against TNFα containing DMSO alone (control) and maximum inhibition generated with excess blocking anti-TNFα monoclonal antibody. An inhibition curve was constructed in ActivityBase using a 4 parameter logistic model (XLfit™). The point of inflexion between the fitted minimum and maximum effects of the inhibitor gives the IC50 value.
# A calculated IC50 for the free compound (herein referred to as “free IC50”) that takes into account the extent of fraction unbound in blood was determined by multiplying the IC50 generated from the first assay (human whole blood screening assay) by the unbound fraction (Fu), generated from the second assay (human blood binding assay).
# T1 sequence (P01375 77-233 limits assumed): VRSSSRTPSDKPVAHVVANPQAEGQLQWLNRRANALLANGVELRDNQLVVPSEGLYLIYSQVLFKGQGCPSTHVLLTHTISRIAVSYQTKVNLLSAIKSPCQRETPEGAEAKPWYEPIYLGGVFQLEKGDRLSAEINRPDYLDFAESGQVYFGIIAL
row,SMILES,pIC50
1,"CN1C(=O)c2cccc(OC(F)F)c2[C@H]2C[C@@H]1c1nc3ccc(-c4cnc([C@]5(C#N)C[C@@](C)(O)C5)c(F)c4)cc3n12 [Example 7, 1-[5-[(1R,11R)-18-(difluoromethoxy)-12-methyl-13-oxo-2,9,12-triazapentacyclo[9.8.1.02,10.03,8.014,19]icosa-3(8),4,6,9,14(19),15,17-heptaen-5-yl]-3-fluoropyridin-2-yl]-3-hydroxy-3-methylcyclobutane-1-carbonitrile]",> 8.40
2,"[2H]C([2H])([2H])N1C(=O)c2cccc(OC(F)F)c2[C@H]2C[C@@H]1c1nc3ccc(-c4cnc([C@]5(O)C[C@@](C)(C#N)C5)nc4)cc3n12 [Example 1, 3-[5-[(1R,11R)-18-(difluoromethoxy)-13-oxo-12-(trideuteriomethyl)-2,9,12-triazapentacyclo[9.8.1.02,10.03,8.014,19]icosa-3(8),4,6,9,14(19),15,17-heptaen-5-yl]pyrimidin-2-yl]-3-hydroxy-1-methylcyclobutane-1-carbonitrile]",~8.22
3,"C[C@]1(C#N)C[C@](O)(c2ncc(-c3ccc4nc5n(c4c3)[C@@H]3C[C@H]5NC(=O)c4cccc(OC(F)F)c43)cc2F)C1 [Example 5, 3-[5-[(1R,11R)-18-(difluoromethoxy)-13-oxo-2,9,12-triazapentacyclo[9.8.1.02,10.03,8.014,19]icosa-3,5,7,9,14(19),15,17-heptaen-5-yl]-3-fluoropyridin-2-yl]-3-hydroxy-1-methylcyclobutane-1-carbonitrile]",~8.30
4,"C[C@]1(C#N)C[C@](O)(c2ncc(-c3cc4c(cc3F)nc3n4[C@@H]4C[C@H]3NC(=O)c3cccc(OC(F)F)c34)cn2)C1 [Example 3, 3-[5-[(1R,11R)-18-(difluoromethoxy)-6-fluoro-13-oxo-2,9,12-triazapentacyclo[9.8.1.02,10.03,8.014,19]icosa-3(8),4,6,9,14(19),15,17-heptaen-5-yl]pyrimidin-2-yl]-3-hydroxy-1-methylcyclobutane-1-carbonitrile]",~8.22

# Now from value to molecule:
row,pIC50,SMILES
1,> 8.40,"CN1C(=O)c2cccc(OC(F)F)c2[C@H]2C[C@@H]1c1nc3ccc(-c4cnc([C@]5(C#N)C[C@@](C)(O)C5)nc4)cc3n12 [Example 6, 1-[5-[(1R,11R)-18-(difluoromethoxy)-12-methyl-13-oxo-2,9,12-triazapentacyclo[9.8.1.02,10.03,8.014,19]icosa-3(8),4,6,9,14(19),15,17-heptaen-5-yl]pyrimidin-2-yl]-3-hydroxy-3-methylcyclobutane-1-carbonitrile]"
2,> 8.40,"CN1C(=O)c2cccc(OC(F)F)c2[C@H]2C[C@@H]1c1nc3ccc(-c4cnc([C@]5(O)C[C@@](C)(C#N)C5)c(F)c4)cc3n12 [Example 4, 3-[5-[(1R,11R)-18-(difluoromethoxy)-12-methyl-13-oxo-2,9,12-triazapentacyclo[9.8.1.02,10.03,8.014,19]icosa-3,5,7,9,14(19),15,17-heptaen-5-yl]-3-fluoropyridin-2-yl]-3-hydroxy-1-methylcyclobutane-1-carbonitrile]"
3,~7.92,"C[C@]1(C#N)C[C@](O)(c2ncc(-c3ccc4nc5n(c4c3)[C@@H]3C[C@H]5NC(=O)c4cccc(OC(F)F)c43)cn2)C1 [Example 2, 3-[5-[(1R,11R)-18-(difluoromethoxy)-13-oxo-2,9,12-triazapentacyclo[9.8.1.02,10.03,8.014,19]icosa-3(8),4,6,9,14(19),15,17-heptaen-5-yl]pyrimidin-2-yl]-3-hydroxy-1-methylcyclobutane-1-carbonitrile]"

# Source: US11554122B2, “Fused pentacyclic imidazole derivatives as modulators of TNF activity” (UCB Biopharma SRL, priority 2018, dated 2023)
